In PubChem BioAssay AID194 (DTP/NCI, 2004):
Several values for one entry are separate records, joined by “and”; a condition that tells them apart may be missing. Identical values can stand only once. Inconclusive results are not listed.

Test system: BDF1 mice, B16 melanoma s.c., survival/tumor T/C
Assay: NCI In Vivo Anticancer Drug Screen. Data for tumor model B16 Melanoma (subcutaneous) in B6D2F1 (BDF1) mice
Protocol: The antitumor activity of compounds was measured in mice bearing transplantable tumors. Survival or tumor size were measured and the results are expressed as the measurement made in the treated group (T) divided by the measurement made in the vehicle treated control group (C). The tumor model used in this assay is B16 Melanoma (subcutaneous) in B6D2F1 (BDF1) mice

SMILES: COC(=O)Nc1nc2ccc(C(=O)c3cccs3)cc2[nH]1
- T/C (endpoint: median survival time, dose: 50.0 mg/kg/injection, schedule: Q04DX002 (iv), vehicle: other, higher = longer survival): 110 % of control
- T/C (endpoint: median survival time, dose: 50.0 mg/kg/injection, schedule: Q05DX005 (ip), vehicle: other, higher = longer survival): 104 % of control
- T/C (endpoint: median survival time, dose: 60.0 mg/kg/injection, schedule: Q05DX005 (ip), vehicle: other, higher = longer survival): 105 % of control
- T/C (endpoint: median survival time, dose: 70.0 mg/kg/injection, schedule: Q05DX005 (ip), vehicle: other, higher = longer survival): 103 % of control

SMILES: Cc1cc2oc(=O)c3c(c2c(O)c1CN1CCN(C)CC1)CCCC3
- T/C (endpoint: median survival time, dose: 64.0 mg/kg/injection, schedule: Q01DX009 (ip), vehicle: Klucel (hydroxypropylcellulose) (HPC), higher = longer survival): 110 % of control
- T/C (endpoint: median survival time, dose: 128.0 mg/kg/injection, schedule: Q01DX009 (ip), vehicle: Klucel (hydroxypropylcellulose) (HPC), higher = longer survival): 113 % of control

SMILES: FC(F)(F)c1nc2nc(Cl)c(Cl)nc2[nH]1
- T/C (endpoint: median survival time, dose: 4.0 mg/kg/injection, schedule: Q01DX009 (ip), vehicle: saline, higher = longer survival): 109 % of control
- T/C (endpoint: median survival time, dose: 8.0 mg/kg/injection, schedule: Q01DX009 (ip), vehicle: saline, higher = longer survival): 105 % of control
- T/C (endpoint: median survival time, dose: 16.0 mg/kg/injection, schedule: Q01DX009 (ip), vehicle: saline, higher = longer survival): 118 % of control

SMILES: CC1=CCC(C(C)C)C=C1 (stereo not drawn)
- T/C (endpoint: median survival time, dose: 25.0 mg/kg/injection, schedule: Q01DX009 (ip), vehicle: Klucel (hydroxypropylcellulose) (HPC), higher = longer survival): 121 % of control
- T/C (endpoint: median survival time, dose: 50.0 mg/kg/injection, schedule: Q01DX009 (ip), vehicle: Klucel (hydroxypropylcellulose) (HPC), higher = longer survival): 117 % of control
- T/C (endpoint: median survival time, dose: 100.0 mg/kg/injection, schedule: Q01DX009 (ip), vehicle: Klucel (hydroxypropylcellulose) (HPC), higher = longer survival): 89 % of control and 100 % of control
- T/C (endpoint: median survival time, dose: 200.0 mg/kg/injection, schedule: Q01DX009 (ip), vehicle: Klucel (hydroxypropylcellulose) (HPC), higher = longer survival): 98 % of control and 108 % of control

SMILES: O=NN(CCF)C(=O)NC1CCSCC1
- T/C (endpoint: median survival time, dose: 31.0 mg/kg/injection, schedule: Q01DX001 (ip), vehicle: saline with Tween-80, higher = longer survival): 177 % of control
- T/C (endpoint: median survival time, dose: 41.0 mg/kg/injection, schedule: Q01DX001 (ip), vehicle: saline with Tween-80, higher = longer survival): 186 % of control
- T/C (endpoint: median survival time, dose: 55.0 mg/kg/injection, schedule: Q01DX001 (ip), vehicle: saline with Tween-80, higher = longer survival): 196 % of control

SMILES: S=P(N1CC1)(N1CC1)N1CC1
- T/C (endpoint: median survival time, dose: 1.0 mg/kg/injection, schedule: Q01DX001 (oral), vehicle: saline, higher = longer survival): 97 % of control
- T/C (endpoint: median survival time, dose: 1.0 mg/kg/injection, schedule: Q02DX009 (ip), vehicle: saline, higher = longer survival): 109 % of control and 113 % of control
- T/C (endpoint: median survival time, dose: 2.0 mg/kg/injection, schedule: Q01DX001 (oral), vehicle: saline, higher = longer survival): 89 % of control
- T/C (endpoint: median survival time, dose: 2.0 mg/kg/injection, schedule: Q01DX009 (ip), vehicle: saline, higher = longer survival): 106 % of control
- T/C (endpoint: median survival time, dose: 2.0 mg/kg/injection, schedule: Q02DX009 (ip), vehicle: saline, higher = longer survival): 99 % of control and 202 % of control
- T/C (endpoint: median survival time, dose: 4.0 mg/kg/injection, schedule: Q01DX001 (oral), vehicle: saline, higher = longer survival): 98 % of control
- T/C (endpoint: median survival time, dose: 8.0 mg/kg/injection, schedule: Q01DX001 (oral), vehicle: saline, higher = longer survival): 100 % of control
- T/C (endpoint: median survival time, dose: 8.0 mg/kg/injection, schedule: Q02DX009 (ip), vehicle: saline, higher = longer survival): 98 % of control
- T/C (endpoint: median survival time, dose: 12.5 mg/kg/injection, schedule: Q01DX001 (ip), vehicle: saline, higher = longer survival): 105 % of control
- T/C (endpoint: median survival time, dose: 16.0 mg/kg/injection, schedule: Q01DX001 (oral), vehicle: saline, higher = longer survival): 100 % of control

SMILES: CC1CCC(NC(=O)N(CCCl)N=O)CC1 (stereo not drawn)
- T/C (endpoint: median survival time, dose: 2.0 mg/kg/injection, schedule: Q02DX009 (ip), vehicle: Klucel (hydroxypropylcellulose) (HPC), higher = longer survival): 113 % of control
- T/C (endpoint: median survival time, dose: 2.5 mg/kg/injection, schedule: Q04DX003 (ip), vehicle: other, higher = longer survival): 123 % of control
- T/C (endpoint: median survival time, dose: 4.0 mg/kg/injection, schedule: Q01DX001 (ip), vehicle: saline with Tween-80, higher = longer survival): 87 % of control
- T/C (endpoint: median survival time, dose: 5.0 mg/kg/injection, schedule: Q04DX003 (ip), vehicle: other, higher = longer survival): 104 % of control
- T/C (endpoint: median survival time, dose: 8.0 mg/kg/injection, schedule: Q01DX001 (ip), vehicle: saline with Tween-80, higher = longer survival): 87 % of control and 120 % of control
- T/C (endpoint: median survival time, dose: 8.0 mg/kg/injection, schedule: Q02DX009 (ip), vehicle: Klucel (hydroxypropylcellulose) (HPC), higher = longer survival): 189 % of control
- T/C (endpoint: median survival time, dose: 8.0 mg/kg/injection, schedule: Q04DX003 (ip), vehicle: saline with Tween-80, higher = longer survival): 106 % of control
- T/C (endpoint: median survival time, dose: 10.0 mg/kg/injection, schedule: Q01DX001 (ip), vehicle: other, higher = longer survival): 111 % of control
- T/C (endpoint: median survival time, dose: 12.0 mg/kg/injection, schedule: Q04DX003 (ip), vehicle: saline with Tween-80, higher = longer survival): 101 % of control
- T/C (endpoint: median survival time, dose: 16.0 mg/kg/injection, schedule: Q01DX001 (ip), vehicle: saline with Tween-80, higher = longer survival): 124 % of control
- T/C (endpoint: median survival time, dose: 16.0 mg/kg/injection, schedule: Q02DX009 (ip), vehicle: Klucel (hydroxypropylcellulose) (HPC), higher = longer survival): 109 % of control
- T/C (endpoint: median survival time, dose: 18.0 mg/kg/injection, schedule: Q01DX001 (ip), vehicle: saline with Tween-80, higher = longer survival): 120 % of control
- T/C (endpoint: median survival time, dose: 18.0 mg/kg/injection, schedule: Q04DX003 (ip), vehicle: saline with Tween-80, higher = longer survival): 192 % of control
- T/C (endpoint: median survival time, dose: 20.0 mg/kg/injection, schedule: Q01DX001 (ip), vehicle: other, higher = longer survival): 192 % of control
- T/C (endpoint: median survival time, dose: 20.0 mg/kg/injection, schedule: Q04DX003 (ip), vehicle: other, higher = longer survival): 223 % of control and 256 % of control
- T/C (endpoint: median survival time, dose: 32.0 mg/kg/injection, schedule: Q01DX001 (ip), vehicle: saline with Tween-80, higher = longer survival): 157 % of control
- T/C (endpoint: median survival time, dose: 36.0 mg/kg/injection, schedule: Q01DX001 (ip), vehicle: saline with Tween-80, higher = longer survival): 213 % of control
- T/C (endpoint: median tumor weight (est.), dose: 15.0 mg/kg/injection, schedule: Q01DX001 (ip), vehicle: Klucel (hydroxypropylcellulose) (HPC), higher = larger tumour): 50 % of control and 72 % of control
- T/C (endpoint: median tumor weight (est.), dose: 30.0 mg/kg/injection, schedule: Q01DX001 (ip), vehicle: Klucel (hydroxypropylcellulose) (HPC), higher = larger tumour): 68 % of control
- T/C (endpoint: median tumor weight (est.), dose: 60.0 mg/kg/injection, schedule: Q01DX001 (ip), vehicle: Klucel (hydroxypropylcellulose) (HPC), higher = larger tumour): 45 % of control

SMILES: CCOC(=O)CNC(=O)CCCCSc1ncnc2nc[nH]c12
- T/C (endpoint: median survival time, dose: 20.0 mg/kg/injection, schedule: Q01DX009 (ip), vehicle: Klucel (hydroxypropylcellulose) (HPC), higher = longer survival): 121 % of control
- T/C (endpoint: median survival time, dose: 40.0 mg/kg/injection, schedule: Q01DX009 (ip), vehicle: Klucel (hydroxypropylcellulose) (HPC), higher = longer survival): 111 % of control
- T/C (endpoint: median survival time, dose: 80.0 mg/kg/injection, schedule: Q01DX009 (ip), vehicle: Klucel (hydroxypropylcellulose) (HPC), higher = longer survival): 119 % of control
- T/C (endpoint: median survival time, dose: 160.0 mg/kg/injection, schedule: Q01DX009 (ip), vehicle: Klucel (hydroxypropylcellulose) (HPC), higher = longer survival): 115 % of control
- T/C (endpoint: median survival time, dose: 320.0 mg/kg/injection, schedule: Q01DX009 (ip), vehicle: Klucel (hydroxypropylcellulose) (HPC), higher = longer survival): 118 % of control
- T/C (endpoint: median survival time, dose: 640.0 mg/kg/injection, schedule: Q01DX009 (ip), vehicle: Klucel (hydroxypropylcellulose) (HPC), higher = longer survival): 122 % of control

SMILES: O=C1C=CC(=O)O1 (tested in a mixture with another compound)
- T/C (endpoint: median survival time, dose: 6.25 mg/kg/injection, schedule: Q01DX009 (ip), vehicle: other, higher = longer survival): 92 % of control
- T/C (endpoint: median survival time, dose: 12.5 mg/kg/injection, schedule: Q01DX009 (ip), vehicle: other, higher = longer survival): 101 % of control
- T/C (endpoint: median survival time, dose: 25.0 mg/kg/injection, schedule: Q01DX009 (ip), vehicle: other, higher = longer survival): 120 % of control

SMILES: O=C1C(=O)c2ccccc2C(O)=C1CC=C(Cl)Cl
- T/C (endpoint: median survival time, dose: 8.0 mg/kg/injection, schedule: Q01DX009 (ip), vehicle: saline + alcohol, higher = longer survival): 87 % of control
- T/C (endpoint: median survival time, dose: 16.0 mg/kg/injection, schedule: Q01DX009 (ip), vehicle: saline + alcohol, higher = longer survival): 109 % of control
- T/C (endpoint: median survival time, dose: 32.0 mg/kg/injection, schedule: Q01DX009 (ip), vehicle: saline + alcohol, higher = longer survival): 77 % of control
- T/C (endpoint: median tumor weight (est.), dose: 12.5 mg/kg/injection, schedule: Q01DX009 (ip), vehicle: Klucel (hydroxypropylcellulose) (HPC), higher = larger tumour): 94 % of control and 104 % of control and 108 % of control
- T/C (endpoint: median tumor weight (est.), dose: 50.0 mg/kg/injection, schedule: Q01DX009 (ip), vehicle: Klucel (hydroxypropylcellulose) (HPC), higher = larger tumour): 53 % of control and 55 % of control and 64 % of control

SMILES: CC(C)(C)c1ccc(CN2CCN(C(c3ccccc3)c3ccc(Cl)cc3)CC2)cc1 (stereo not drawn)
- T/C (endpoint: median survival time, dose: 22.5 micrograms/kg/injection, schedule: Q01DX009 (ip), vehicle: Klucel (hydroxypropylcellulose) (HPC), higher = longer survival): 91 % of control
- T/C (endpoint: median survival time, dose: 45.0 micrograms/kg/injection, schedule: Q01DX009 (ip), vehicle: Klucel (hydroxypropylcellulose) (HPC), higher = longer survival): 88 % of control

SMILES: OCC1SC(O)C(O)C(O)C1O (stereo not drawn)
- T/C (endpoint: median survival time, dose: 500.0 mg/kg/injection, schedule: Q02HX003 (ip), vehicle: saline, higher = longer survival): 104 % of control
- T/C (endpoint: median survival time, dose: 500.0 mg/kg/injection, schedule: Q02HX003 (ip), vehicle: water, higher = longer survival): 103 % of control
- T/C (endpoint: median survival time, dose: 1000.0 mg/kg/injection, schedule: Q02HX003 (ip), vehicle: saline, higher = longer survival): 89 % of control
- T/C (endpoint: median survival time, dose: 1000.0 mg/kg/injection, schedule: Q02HX003 (ip), vehicle: water, higher = longer survival): 95 % of control
- T/C (endpoint: median survival time, dose: 1500.0 mg/kg/injection, schedule: Q01DX001 (ip), vehicle: saline, higher = longer survival): 100 % of control
- T/C (endpoint: median survival time, dose: 1500.0 mg/kg/injection, schedule: Q01DX001 (ip), vehicle: water, higher = longer survival): 99 % of control
- T/C (endpoint: median survival time, dose: 3000.0 mg/kg/injection, schedule: Q01DX001 (ip), vehicle: saline, higher = longer survival): 91 % of control
- T/C (endpoint: median survival time, dose: 3000.0 mg/kg/injection, schedule: Q01DX001 (ip), vehicle: water, higher = longer survival): 92 % of control

SMILES: Cn1c(CCCC(=O)O)nc2cc(N(CCCl)CCCl)ccc21
- T/C (endpoint: median survival time, dose: 2.5 mg/kg/injection, schedule: Q01DX009 (ip), vehicle: saline, higher = longer survival): 120 % of control
- T/C (endpoint: median survival time, dose: 5.0 mg/kg/injection, schedule: Q01DX009 (ip), vehicle: saline, higher = longer survival): 98 % of control
- T/C (endpoint: median survival time, dose: 10.0 mg/kg/injection, schedule: Q01DX009 (ip), vehicle: saline, higher = longer survival): 96 % of control
